We go through three compounds from US9732151B2, “Biomarkers for TSLP treatment” (Merck Sharp & Dohme Corp., priority 2011, dated 2017).

Assay [1] concerns biomarkers in BAL fluid or cell mRNA. Briefly: Table VIII summary: biomarkers down with steroids in BAL fluid or BAL cell mRNA. The format is in vivo, mice. An excerpt: (§1) mRNA isolation from BAL cells and qRT-PCR: Total RNA was isolated from BAL cells using the RNeasy method (Qiagen, Valencia, Calif.) and reverse-transcribed using WT-OVATION ® (chemicals, assays, and reagents for nucleic acid sequence amplification, sequencing and sequence analysis and detection) Pico System (NuGen Technologies, San Carlos Calif.). Primers were designed using Primer Express software (Applied Biosystem, Foster City, Calif.) or obtained commercially from Applied Biosystems (ABI). qRT-PCR was performed on 10 ng of cDNA from each sample as described previously. Chan et al., J. Exp. Med. 203:2577-87 (2006).
Western blot analysis of BAL fluid samples: Western blot analysis was performed on BAL fluid samples. 200 uL of each BAL fluid sample was acetone precipitated in 4 volumes of cold acetone overnight and resuspended in 1× NUPAGE® (chemical preparations used for life sciences research) LDS sample loading buffer. An equal amount was separated on a 4-12% NUPAGE® (chemical preparations used for life sciences research) gels, and gels were electroblotted onto PVDF membranes overnight at 10V in NUPAGE® (chemical preparations used for life sciences research) transfer buffer. Membranes were blocked in 5% fat-free milk in TBS/T (10mM TrisHC1 pH 7.5, 100 mM NaC1, 0.1% TWEEN® 20 (polysorbate 20)) for 1 hour and incubated with specific antibodies according to the manufacturer's instructions in 1% milk in TBS/T for another 2 hours. Blots were incubated with HRP-labeled secondary antibodies (chicken anti-goat) IgG, R&D Systems, Minneapolis, Minn. or donkey anti-rabbit Ig-G, GE Healthcare, Piscataway, N.J.) in 1% milk in TB S/T for another hour and detection was performed with ECL+(GE Healthcare). Primary antibodies used included anti-mouse LCN2, anti-mouse sICAM-1, anti-human sICAM-1 (for monkey studies), anti-mouse GP-39, anti-mouse YM1, and anti-mouse pIgR (all from R&D Systems); and anti-mouse UG, anti-mouse AMCase, anti-human AMCase (for monkey studies), anti-mouse CLCA3, and anti-human CLCA1 (for monkey studies) (all from Santa Cruz Biotechnology, Santa Cruz, Calif.). Polyclonal anti-mouse Reg3γ was generated at Schering-Plough Biopharma. After autoradiography visualization, membranes were dried and scanned on a Typhoon 9400 (GE Healthcare) for ECL+(457 nm excitation and 520BP40 emission). Image analysis was conducted using ImageQuant v5.2 (GE Healthcare) and band intensity reported as sum of pixel values above background.
ELISAs: Mouse LCN2, GP-39, sICAM-1, and YM1 proteins were quantified using QUANTIKINE® (in vitro immunoassay kits) or DUOSET® (biological reagents for use in research applications to identify cytokines by immunoassay) ELISA kits (R&D Systems) using a Vmax spectrophotometer with SoftMax Pro software (Molecular Devices); mouse IL-4, IL-5, and IL-13 were measured using a Luminex 100 machine with LINCOPLEX® (panels for taking immunoassay measurements and testing cytokine and endocrine hormones) multiplex kits (Millipore) and analyzed with MasterPlex software (Miraibio). Monkey YKL-40 was quantified via ELISA (Quidel), analyzed as above.

In assay [2] the test system is biomarker genes in lung tissue of TSLP Tg mice. The assay can be described thus: qRT-PCR of biomarker genes in lung tissue, steroid-treated TSLP Tg mice. The format is in vivo. As to the method:
TSLP Tg mice, on the BALB/c background, were obtained from the laboratory of Steven Ziegler. Zhou et al., Nat. Immunol. 6:1047-53 (2005). Non-transgenic littermates served as control mice. BALB/c mice (for ovalbumin (OVA)-induced asthma experiments) were purchased from the Jackson Laboratory. The standard model of OVA-induced asthma described below was used. In dexamethasone-treatment experiments, 12 week-old TSLP Tg mice were injected i.p. daily for 2 weeks with 2 mg/kg dexamethasone 21-phosphate disodium salt (Sigma) in sterile PBS, or with sterile PBS alone as a control. Colonies were maintained in a specific pathogenic-free environment.
Harvest of murine BAL fluid, BAL cells, and lung tissue: BAL fluid was isolated by washing the lung (through the trachea) with 1mL of PBS. Lavage fluid was kept on ice and centrifuged at 400g for 5 min. The supernatant was frozen for cytokine analysis, and the cell pellet was resuspended in 1mL of PBS for total viable cell count by Vi-CELL ([…]) and cell differentials by cytospin. Slides were air-dried, fixed with 95% ethanol, and stained with Wright-Giemsa (Sigma-Aldrich). A minimum of 200 cells were counted under the microscope per slide for cell differentials. The postcaval lung lobe and BAL cells were collected and snap-frozen in liquid nitrogen for qRT-PCR analysis as described previously for tissue (Chan et al., J. Exp. Med. 203:2577-87 (2006)) and below for BAL cells. The single left lung lobe was excised for histology and clinical scoring as described below.
as §1
In general terms: In qPCR the cycle at which signal appears reflects the starting amount.

For assay [3], the system named is biomarker genes in skin of calcipotriol treated mice. Briefly: Vitamin D (calcipotriol) induced skin inflammation, real-time PCR of skin mRNA, +/- anti-TSLP. Type of assay: in vivo, mice (Balb/c). The settings on record: calcipotriol 2 nmol/ear daily, skin at day 8 (FIG. 5). As to the method: (§2) Vitamin D Induced Skin Inflammation: The vitamin D analogue, calcipotriol (Tocris, Ellisville, Mo.), was dissolved in ethanol and was applied daily to both sides of the ears at a final concentration of 2 nmol/ear. Control animals were given ethanol only. Ear swelling was measured daily using an engineer's pressure gauge (Peacock, Japan) and blood was collected. The blood was spun at 10.000 rpm for 5 minutes to separate the serum, which was frozen at −80 C. until analyzed by ELISA. Calcipotriol applications were stopped on day 8 (Balb/c mice), ears were harvested and fixed in 10% formalin for pathological evaluation or frozen directly in liquid nitrogen for mRNA extraction.
Neutralization Experiments: mice were treated with 0.1, 0.4, 1, 4, 12, 40 and 120 mgs per kg (mpk) of a rat anti-mouse TSLP antibody (designated “22E5”) subcutaneously (s.c.) one day (d−1) prior to VitD3 treatment. Control mice received isotype antibody at 4 and 40 mpk. The mice were sacrificed at day 8.
Real-time PCR was conducted on mRNA extracted from skin tissue of mice treated with calcipotriol in the absence or the presence of an antagonistic anti-TSLP antibody or an isotype control

Assay [4] deals with biomarker genes in skin of TSLPR KO mice. The assay can be described thus: Calcipotriol skin inflammation in TSLPR KO mice, real-time PCR of skin mRNA. Type of assay: in vivo. To be noted: calcipotriol vs ethanol. As to the method: as §2, with “Mice: Six- to eight-week-old Balb/c were obtained from Jackson Labs (Bar Harbour, Me.). TSLPR KO mice were obtained from Dr. W. Leonard, NIH, Bethesda, Md. (Al Shami et al., J. Exp. Med. 200:159-168 (2004). Age-matched males were used for the time-course study and females for two efficacy studies. Vitamin” for “Vitamin”, “-80” for “−80”, “extraction. […] Similarly, real-time PCR was conducted on mRNA extracted from skin tissue of TSLPR KO mice treated with either ethanol (vehicle control) or calcipotriol.” for “extraction.”

Assay [5] concerns biomarker proteins in BAL fluid of HDMA-challenged monkeys. Briefly: BAL fluid biomarkers (western blot, ELISA) in HDMA-challenged monkeys before and after corticosteroid therapy. Type of assay: in vivo, cynomolgus macaques (Macaca fascicularis). A general note: Immunoblotting shows a protein as a band on a membrane.
Experimental: Western blot analysis of BAL fluid samples: Western blot analysis was performed on BAL fluid samples. 200 uL of each BAL fluid sample was acetone precipitated in 4 volumes of cold acetone overnight and resuspended in 1× NUPAGE® (chemical preparations used for life sciences research) LDS sample loading buffer. An equal amount was separated on a 4-12% NUPAGE® (chemical preparations used for life sciences research) gels, and gels were electroblotted onto PVDF membranes overnight at 10V in NUPAGE® (chemical preparations used for life sciences research) transfer buffer. Membranes were blocked in 5% fat-free milk in TBS/T (10mM TrisHC1 pH 7.5, 100 mM NaC1, 0.1% TWEEN® 20 (polysorbate 20)) for 1 hour and incubated with specific antibodies according to the manufacturer's instructions in 1% milk in TBS/T for another 2 hours. Blots were incubated with HRP-labeled secondary antibodies (chicken anti-goat) IgG, R&D Systems, Minneapolis, Minn. or donkey anti-rabbit Ig-G, GE Healthcare, Piscataway, N.J.) in 1% milk in TB S/T for another hour and detection was performed with ECL+(GE Healthcare). Primary antibodies used included anti-mouse LCN2, anti-mouse sICAM-1, anti-human sICAM-1 (for monkey studies), anti-mouse GP-39, anti-mouse YM1, and anti-mouse pIgR (all from R&D Systems); and anti-mouse UG, anti-mouse AMCase, anti-human AMCase (for monkey studies), anti-mouse CLCA3, and anti-human CLCA1 (for monkey studies) (all from Santa Cruz Biotechnology, Santa Cruz, Calif.). […] After autoradiography visualization, membranes were dried and scanned on a Typhoon 9400 (GE Healthcare) for ECL+(457 nm excitation and 520BP40 emission). Image analysis was conducted using ImageQuant v5.2 (GE Healthcare) and band intensity reported as sum of pixel values above background.
At this time, animals were challenged with nebulized HDMA (1 to 2500 AU/mL for 4 minutes) at a concentration that induced an early asthmatic response, defined as a 100% increase in lung resistance, 40% decrease in dynamic compliance, or decline in arterial oxygen saturation to ≦70%. Airway inflammation and reactions to nebulized histamine and methacholine 24 hours after allergen challenge were measured periodically to confirm chronic asthmatic responses. Wardle-Fick methods were used to obtain BAL fluid. BAL cells were then separated from the fluid phase. […] In corticosteroid treatments experiments, animals were challenged with HDMA and BAL fluid was collected 24 hours later (“Pre”).
The subject of assay [6] is HDMA-challenged monkeys. The assay can be described thus: Asthma symptoms in HDMA-induced asthma in nonhuman primates after corticosteroid treatment. Type of assay: in vivo, cynomolgus macaques (Macaca fascicularis). The settings on record: high-dose corticosteroids for 2 weeks, data not shown. An excerpt:
House mite allergen (HDMA)-induced asthma in nonhuman primates: Juvenile macaques (Cynomolgus fascicularis, 30 to 42 months of age) were purchased from Alphagenesis (Yemassee, S.C.). Animals were sensitized to HDMA over a 7.5 month period by intraperitoneal injection of 312 AU Dermatophagoides pteronyssinus extract (Greer Laboratories, Lenoir, N.C.) absorbed to IMJECT® (reagents used in connection with enhancing immune responses) Alum (Pierce, Rockford, Ill.) administered every two weeks until HDMA-specific IgE titers approached levels in control allergic serum, and then at 4-week intervals until aeroallergen challenge. At this time, animals were challenged with nebulized HDMA (1 to 2500 AU/mL for 4 minutes) at a concentration that induced an early asthmatic response, defined as a 100% increase in lung resistance, 40% decrease in dynamic compliance, or decline in arterial oxygen saturation to ≦70%. Airway inflammation and reactions to nebulized histamine and methacholine 24 hours after allergen challenge were measured periodically to confirm chronic asthmatic responses. Wardle-Fick methods were used to obtain BAL fluid. BAL cells were then separated from the fluid phase. Mass spectrometry compared BAL fluid from sensitized animals before and after HDMA challenge. In corticosteroid treatments experiments, animals were challenged with HDMA and BAL fluid was collected 24 hours later (“Pre”). Animals then received weekly doses of methylprednisolone succinate (4.5 mg/kg intramuscularly) for two weeks, followed by a single dose of methylprednisolone acetate (10 mg/kg […].) one week later at the time of allergen challenge. BAL fluid was collected 24 hours following challenge (“Post”). Animal husbandry was conducted under USDA guidelines. All protocols were approved by the Institutional Animal Care and Use Committee of East Carolina University.

On to `C[C@@H]1C[C@H]2[C@@H]3CCC4=CC(=O)C=C[C@]4(C)[C@@]3(F)[C@@H](O)C[C@]2(C)[C@@]1(O)C(=O)CO` [Steroids, dexamethasone], for which, in assay [1], the “Down with Steroids (BAL fluid or cell mRNA): AMCase (Chia)” value is “— (a dash indicates a biomarker not reduced upon treatment)”, the “Down with Steroids (BAL fluid or cell mRNA): ECP (Ear11)” value is “— (a dash indicates a biomarker not reduced upon treatment)”, the “Down with Steroids (BAL fluid or cell mRNA): LTF” value is listed as “— (a dash indicates a biomarker not reduced upon treatment)” and the “Down with Steroids (BAL fluid or cell mRNA): MMP12” value is on record as “— (a dash indicates a biomarker not reduced upon treatment)”. In assay [1], the “Down with Steroids (BAL fluid or cell mRNA): Reg3γ” value is “— (a dash indicates a biomarker not reduced upon treatment)”. Also, in assay [2], the “Down with Steroids (Lung Tissue): CLCA3” value was “— (a dash indicates a biomarker not reduced upon treatment)”, the “Down with Steroids (Lung Tissue): Chi3l4 (YM2)” value is listed as “— (a dash indicates a biomarker not reduced upon treatment)”, the “Down with Steroids (Lung Tissue): ECP (Ear11)” value is “— (a dash indicates a biomarker not reduced upon treatment)” and the “Down with Steroids (Lung Tissue): FCGBP” value is given as “— (a dash indicates a biomarker not reduced upon treatment)”. Besides, in assay [2], the “Down with Steroids (Lung Tissue): ICAM-1” value is on record as “— (a dash indicates a biomarker not reduced upon treatment)”, the “Down with Steroids (Lung Tissue): LCN2” value was “— (a dash indicates a biomarker not reduced upon treatment)”, the “Down with Steroids (Lung Tissue): PGLYRP1” value is “— (a dash indicates a biomarker not reduced upon treatment)” and the “Down with Steroids (Lung Tissue): RETNLβ” value is listed as “— (a dash indicates a biomarker not reduced upon treatment)”. Moreover, the “Down with Steroids (Lung Tissue): Reg3γ” value in assay [2] was “— (a dash indicates a biomarker not reduced upon treatment)”.
With `C=C1/C(=C\C=C2/CCC[C@]3(C)[C@@H]([C@H](C)/C=C/[C@@H](O)C4CC4)CC[C@@H]23)C[C@@H](O)C[C@@H]1O` [calcipotriol], the “upregulation of EAR11, MMP12, LCN2, YM1, YM2, YKL-40, Reg3 g, PGLYRP1, CD44 mRNA in skin” value in assay [3] is recorded as at least 2 fold. Besides, the “EAR11, MMP12, and YM2 mRNA in skin” value in assay [4] was “not upregulated”.
With `C[C@H]1C[C@@H]2[C@H]([C@@H](O)C[C@@]3(C)[C@H]2CC[C@]3(O)C(=O)COC(=O)CCC(=O)O)[C@@]2(C)C=CC(=O)C=C12` [corticosteroid, methylprednisolone succinate], the “disease biomarkers in BAL fluid” value in assay [5] (HDMA-challenged monkeys, 2 weeks of corticosteroid therapy (FIG. 4)) is reported as “Reduction”. Moreover, the “expression of LCN2, UG, pIgR, PAP, and CLCA1 in BAL fluid” value in assay [5] (Post vs Pre corticosteroid, trending downward, data not shown) is listed as “not significantly reduced”. In assay [5] (by ELISA, Post vs Pre corticosteroid (FIG. 4B)), the “GP-39 in BAL fluid” value is on record as “significantly reduced”. Further, the “AMCase, sICAM-1, CLCA1 in BAL fluid” value in assay [5] (by western blot, Post vs Pre corticosteroid (FIG. 4A)) was “significantly reduced”. Also, in assay [6], the airway eosinophil recruitment entry is “reduced”, the asthma symptoms entry is recorded as “reduced” and the lung function entry is on record as “improved”.
